{"source": "paper PMC4308718", "about": "(Nature Communications, 2015)", "molecules": {"B1": {"name": "AtPHT4;4 (Arabidopsis thaliana) (protein)", "chain": "MALGGLISNRNFGSFIGSGNGCQRLGKSGAEVSKLFPNALLCRNHQPLQASLHHESGHMRRSFGCFLQPRMDSVIRFRNSIKINRSRAYYKSEESDITEGVVPSADGSAEAILVEGNLQNASPWWQQFPRRWVIVLLCFSSFLLCNMDRVNMSIAILPMSQEYNWSSATVGLIQSSFFWGYLLTQILGGIWADKFGGKVVLGFGVVWWSFATIMTPIAARLGLPFLLVVRAFMGIGEGVAMPAMNNMLSKWIPVSERSRSLALVYSGMYLGSVTGLAFSPMLITKFGWPSVFYSFGSLGSIWFLLWLKFAYSSPKDDPDLSEEEKKVILGGSKPREPVTVIPWKLILSKPPVWALIISHFCHNWGTFILLTWMPTYYNQVLKFNLTESGLLCVLPWLTMAVFANIGGWIADTLVSRGLSITNVRKIMQSIGFLGPAFFLSQLSHVKTPAMAVLCMACSQGSDAFSQSGLYSNHQDIGPRYAGVLLGLSNTAGVLAGVFGTAATGYILQRGSWDDVFKVAVALYLIGTLVWNLFATGEKILD"}}, "key": {"AtPHT4;4": {"biological_target": "T1, AtPHT4;4 (Arabidopsis thaliana, UniProt Q8GX78)", "T1 construct": "gene PHT4; cDNA from ATG; His-tag and soluble alpha-helix protein (beta) at both ends, beta-pET-28a(+)-beta; E. coli C43(DE3); purified by Ni-NTA; proteoliposomes", "T1 sequence (Q8GX78 1-541)": "B1 chain", "assay": "inhibition of […]-ascorbate uptake into proteoliposomes, […] min", "assay_type": "biochemical", "conditions": "1 and 10 μM inhibitor; 100 μM ascorbate; 2 μM valinomycin; pH 7.0; 27 °C"}, "AtPHT4;6": {"biological_target": "T2, AtPHT4;6 (Arabidopsis thaliana, UniProt Q9FKV1)", "T2 construct": "gene ANTR5", "T2 sequence (Q9FKV1 whole entry)": "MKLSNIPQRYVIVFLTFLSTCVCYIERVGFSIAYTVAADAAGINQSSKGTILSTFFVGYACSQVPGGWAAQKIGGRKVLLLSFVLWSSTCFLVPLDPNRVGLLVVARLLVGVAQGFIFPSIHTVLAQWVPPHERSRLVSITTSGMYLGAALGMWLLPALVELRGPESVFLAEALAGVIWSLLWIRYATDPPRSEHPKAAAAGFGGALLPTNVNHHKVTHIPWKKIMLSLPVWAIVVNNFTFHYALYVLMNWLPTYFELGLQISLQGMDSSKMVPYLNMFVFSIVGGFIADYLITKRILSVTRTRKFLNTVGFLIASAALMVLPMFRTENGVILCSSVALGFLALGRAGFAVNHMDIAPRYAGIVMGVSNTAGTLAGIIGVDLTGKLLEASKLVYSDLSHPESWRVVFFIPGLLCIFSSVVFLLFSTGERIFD", "conditions": "labelled compound (32P); 100 μM phosphate; 0.1 M sodium acetate; pH 7.0"}, "AtPHT4;5": {"biological_target": "T3, AtPHT4;5 (Arabidopsis thaliana, UniProt Q3E9A0)", "T3 construct": "gene ANTR6", "T3 sequence (Q3E9A0 whole entry)": "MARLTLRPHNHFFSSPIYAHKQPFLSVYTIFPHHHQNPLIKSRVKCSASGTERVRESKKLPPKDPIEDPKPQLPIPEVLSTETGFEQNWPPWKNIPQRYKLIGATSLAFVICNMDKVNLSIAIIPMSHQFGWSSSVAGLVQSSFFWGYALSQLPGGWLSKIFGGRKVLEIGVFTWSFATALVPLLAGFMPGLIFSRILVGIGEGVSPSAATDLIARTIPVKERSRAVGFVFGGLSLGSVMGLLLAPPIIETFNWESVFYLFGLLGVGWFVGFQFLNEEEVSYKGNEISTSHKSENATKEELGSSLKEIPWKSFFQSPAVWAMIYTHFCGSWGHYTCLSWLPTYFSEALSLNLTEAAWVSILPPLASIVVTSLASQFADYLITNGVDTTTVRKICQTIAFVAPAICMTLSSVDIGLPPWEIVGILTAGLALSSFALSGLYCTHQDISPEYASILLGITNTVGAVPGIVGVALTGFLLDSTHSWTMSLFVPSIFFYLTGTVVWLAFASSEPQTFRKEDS", "conditions": "labelled compound (32P); 100 μM phosphate; 0.1 M sodium acetate; pH 7.0"}, "AtPHT4;3": {"biological_target": "T4, AtPHT4;3 (Arabidopsis thaliana, UniProt Q66GI9)", "T4 construct": "gene ANTR4", "T4 sequence (Q66GI9 whole entry)": "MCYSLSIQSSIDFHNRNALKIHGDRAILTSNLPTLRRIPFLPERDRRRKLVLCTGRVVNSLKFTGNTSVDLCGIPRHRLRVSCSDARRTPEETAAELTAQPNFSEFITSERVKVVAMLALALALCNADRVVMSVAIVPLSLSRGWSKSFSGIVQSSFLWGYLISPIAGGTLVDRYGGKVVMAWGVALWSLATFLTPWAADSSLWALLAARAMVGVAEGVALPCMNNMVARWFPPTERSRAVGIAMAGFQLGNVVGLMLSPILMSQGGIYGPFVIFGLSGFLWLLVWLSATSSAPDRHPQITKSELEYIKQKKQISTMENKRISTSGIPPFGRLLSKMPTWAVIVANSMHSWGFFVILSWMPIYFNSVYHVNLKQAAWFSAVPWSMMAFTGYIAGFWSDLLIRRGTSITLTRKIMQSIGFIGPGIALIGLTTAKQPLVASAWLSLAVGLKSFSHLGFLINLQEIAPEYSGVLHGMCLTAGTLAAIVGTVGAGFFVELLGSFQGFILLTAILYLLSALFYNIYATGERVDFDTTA", "conditions": "labelled compound (32P); 100 μM phosphate; 0.1 M sodium acetate; pH 7.0"}, "purified protein": {"substrate": "O=C1O[C@H]([C@@H](O)CO)C(O)=C1O", "assay": "purified protein", "conditions": "labelled compound (14C), valinomycin-induced inside-positive membrane potential, 4 mM KCl, pH 7.0, 27 °C"}}}
{"molecule": "O=S(=O)(O)c1cc(N=C=S)ccc1/C=C/c1ccc(N=C=S)cc1S(=O)(=O)O", "note": "[4,4′-diisothiocyano-2,2′-stilbenedisulphonic acid]", "values": [{"measurement": "inhibition of 14C-ascorbate uptake into proteoliposomes, 1 min", "setting": "AtPHT4;4", "result": "typical inhibitors of mammalian SLC17 family transporters, inhibited ascorbate uptake"}]}
{"molecule": "Cc1cc(-c2ccc(/N=N/c3ccc4c(S(=O)(=O)O)cc(S(=O)(=O)O)c(N)c4c3O)c(C)c2)ccc1/N=N/c1ccc2c(S(=O)(=O)O)cc(S(=O)(=O)O)c(N)c2c1O", "note": "[Evans blue]", "values": [{"measurement": "inhibition of 14C-ascorbate uptake into proteoliposomes, 1 min", "setting": "AtPHT4;4", "result": "typical inhibitors of mammalian SLC17 family transporters, inhibited ascorbate uptake"}]}
{"molecule": "O=P(O)(O)O", "note": "[inorganic phosphate]", "values": [{"measurement": "Na+-driven 32P-phosphate uptake into proteoliposomes, 2 min", "setting": "AtPHT4;6", "result": "Na^+/Pi transport activity was detected in proteoliposomes containing all of these transporters"}, {"measurement": "Na+-driven 32P-phosphate uptake into proteoliposomes, 2 min", "setting": "AtPHT4;5", "result": "Na^+/Pi transport activity was detected in proteoliposomes containing all of these transporters"}, {"measurement": "Na+-driven 32P-phosphate uptake into proteoliposomes, 2 min", "setting": "AtPHT4;3", "result": "Na^+/Pi transport activity was detected in proteoliposomes containing all of these transporters"}]}
{"molecule": "B1", "values": [{"measurement": "Km", "setting": "purified protein", "result": 1200, "unit": "µM"}]}
